Source: patent US20250059185A1 (Hoffmann-La Roche Inc., priority 2021, published 2025)

What follows are compounds tested against MAGL (Homo sapiens (Human), UniProt Q99685) (assay: 2-AG assay (MAGL inhibitory activity, hydrolysis of 2-arachidonoylglycerol followed by mass spectrometry)). Conditions: 50 pM MAGL protein, 15 min pre-incubation, 30 min incubation at RT.
Format: biochemical
Outline: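 Human MAGL (50 pM final) preincubated 15 min at RT with compound (3-fold dilutions, 12.5 μM to 0.8 pM final) in 50 mM TRIS, 1 mM EDTA, 0.01% Tween-20, 2.5% DMSO. Reaction with […] 2-AG ran 30 min at RT, then was quenched with acetonitrile containing d8-arachidonic acid. Arachidonic acid measured by SPE–triple-quad MS (negative ESI), activity from the arachidonic/d8-arachidonic acid intensity ratio.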

Sequence of MAGL (Q99685 whole entry, species assumed): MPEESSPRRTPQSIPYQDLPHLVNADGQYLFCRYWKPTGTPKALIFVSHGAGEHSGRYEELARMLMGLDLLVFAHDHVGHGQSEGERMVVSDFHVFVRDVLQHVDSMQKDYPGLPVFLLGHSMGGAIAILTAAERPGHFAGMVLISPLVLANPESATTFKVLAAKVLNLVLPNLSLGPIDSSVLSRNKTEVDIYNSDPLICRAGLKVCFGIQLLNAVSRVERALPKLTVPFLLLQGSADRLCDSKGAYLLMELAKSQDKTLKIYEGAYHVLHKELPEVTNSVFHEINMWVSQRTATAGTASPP

Compound	IC50
C[C@H]1c2nn(C)c(-c3cc(Cl)cc(C4(NS(C)(=O)=O)CC4)c3)c2CCN1C(=O)c1ncn(-c2cc(Cl)cnc2O)n1 [Example 91, N-[1-[3-chloro-5-[(7S)-6-[1-(5-chloro-2-hydroxy-3-pyridyl)-1,2,4-triazole-3-carbonyl]-2,7-dimethyl-5,7-dihydro-4H-pyrazolo[3,4-c]pyridin-3-yl]phenyl]cyclopropyl]methanesulfonamide]	1730 nM
COCCOc1cc(Cl)cc(-c2c3c(nn2C)[C@@H](C)N(C(=O)c2cccc(OC)c2Cl)CC3)c1 [Example 79, [(7R)-3-[3-chloro-5-(2-methoxyethoxy)phenyl]-2,7-dimethyl-5,7-dihydro-4H-pyrazolo[3,4-c]pyridin-6-yl]-(2-chloro-3-methoxy-phenyl)methanone]	1240 nM
CC1c2nn(C)c(-c3cc(F)cc(F)c3)c2CCN1C(=O)c1cc(F)cc(OCC2CNC(=O)C2)c1Cl (racemic) [Example 40, 4-[[2-Chloro-3-[3-(3,5-difluorophenyl)-2,7-dimethyl-5,7-dihydro-4H-pyrazolo[3,4-c]pyridine-6-carbonyl]-5-fluoro-phenoxy]methyl]pyrrolidin-2-one]	293 nM

Compounds with a lower IC50, results first:

IC50	Compound
51.6 nM	C[C@H]1c2nn(C)c(-c3cc(F)cc(F)c3)c2CCN1C(=O)c1cc(F)cc(N2CC3(CCN3)C2)c1Cl [Example 111, [2-chloro-3-(1,6-diazaspiro[3.3]heptan-6-yl)-5-fluoro-phenyl]-[(7S)-3-(3,5-difluorophenyl)-2,7-dimethyl-5,7-dihydro-4H-pyrazolo[3,4-c]pyridin-6-yl]methanone;2,2,2-trifluoroacetic acid]
104 nM	C[C@H]1c2nn(C)c(-c3cc(F)cc(F)c3)c2CCN1C(=O)c1ncn(-c2cc(Cl)cnc2O)n1 [Example 35, [1-(5-Chloro-2-hydroxy-3-pyridyl)-1,2,4-triazol-3-yl]-[(7S)-3-(3,5-difluorophenyl)-2,7-dimethyl-5,7-dihydro-4H-pyrazolo[3,4-c]pyridin-6-yl]methanone]
